Test results from PubChem BioAssay AID330 (DTP/NCI, 2004).
Where “and” joins values, the source holds several entries; their conditions need not be identical. Equal entries are not always repeated. Inconclusive results and toxic doses are left out.

System: P388 leukemia ip, CD2F1 mice, survival T/C
Test: NCI In Vivo Anticancer Drug Screen. Data for tumor model P388 Leukemia (intraperitoneal) in CD2F1 (CDF1) mice
Details: endpoint: median survival time, higher = longer survival
Method in brief: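 Mice carrying the transplanted tumor received test compound or vehicle. Survival was recorded in each group, and the value is the treated-group measurement divided by that of the vehicle-treated control group.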

[1] = dose: 100.0 mg/kg/injection, schedule: Q01DX001 (ip), vehicle: Klucel (hydroxypropylcellulose) (HPC)
[2] = dose: 60.0 mg/kg/injection, schedule: Q01DX005 (ip), vehicle: saline with Tween-80
[3] = dose: 120.0 mg/kg/injection, schedule: Q01DX005 (ip), vehicle: saline with Tween-80
[4] = dose: 240.0 mg/kg/injection, schedule: Q01DX005 (ip), vehicle: saline with Tween-80

Compound: CN(C)[C@@H]1C(=O)C(C(=O)NCN2CCN(C(=N)N=C(N)N)CC2)=C(O)[C@@]2(O)C(=O)C3=C(O)c4c(O)cccc4[C@@](C)(O)[C@H]3C[C@@H]12
- T/C (dose: 1.8 mg/kg/injection, schedule: Q01DX005 (ip), vehicle: saline): 111 % of control
- T/C (dose: 3.0 mg/kg/injection, schedule: Q01DX005 (ip), vehicle: saline): 117 % of control
- T/C (dose: 8.33 mg/kg/injection, schedule: Q01DX005 (ip), vehicle: saline): 154 % of control
- T/C (dose: 10.0 mg/kg/injection, schedule: Q01DX005 (ip), vehicle: saline): 89 % of control

Compound: CCC1(CC)c2c(ccc(OC)c2OC)C=C2c3cc4c(cc3CCN21)OCO4
- T/C (dose: 0.63 mg/kg/injection, schedule: Q01DX009 (ip), vehicle: distilled water + Tween-80): 108 % of control
- T/C (dose: 0.63 mg/kg/injection, schedule: Q01DX009 (ip), vehicle: water): 94 % of control
- T/C (dose: 1.25 mg/kg/injection, schedule: Q01DX009 (ip), vehicle: distilled water + Tween-80): 108 % of control
- T/C (dose: 1.25 mg/kg/injection, schedule: Q01DX009 (ip), vehicle: water): 103 % of control
- T/C (dose: 2.5 mg/kg/injection, schedule: Q01DX009 (ip), vehicle: distilled water + Tween-80): 123 % of control
- T/C (dose: 2.5 mg/kg/injection, schedule: Q01DX009 (ip), vehicle: water): 112 % of control

Compound: Clc1ccc(N=Cc2cccs2)c(Cl)c1
- T/C (dose: 50.0 mg/kg/injection, schedule: Q01DX009 (ip), vehicle: Klucel (hydroxypropylcellulose) (HPC)): 118 % of control
- T/C (dose: 100.0 mg/kg/injection, schedule: Q01DX009 (ip), vehicle: Klucel (hydroxypropylcellulose) (HPC)): 107 % of control
- T/C (dose: 200.0 mg/kg/injection, schedule: Q01DX009 (ip), vehicle: Klucel (hydroxypropylcellulose) (HPC)): 110 % of control

Compound: Nc1nc2ccccc2[nH]1
- T/C (dose: 20.0 mg/kg/injection, schedule: Q04DX003 (ip), vehicle: other): 101 % of control
- T/C (dose: 20.0 mg/kg/injection, schedule: Q04DX003 (oral), vehicle: other): 102 % of control
- T/C (dose: 40.0 mg/kg/injection, schedule: Q04DX003 (ip), vehicle: other): 100 % of control
- T/C (dose: 40.0 mg/kg/injection, schedule: Q04DX003 (oral), vehicle: other): 100 % of control
- T/C (dose: 80.0 mg/kg/injection, schedule: Q04DX003 (ip), vehicle: other): 101 % of control
- T/C (dose: 80.0 mg/kg/injection, schedule: Q04DX003 (oral), vehicle: other): 102 % of control
- T/C (dose: 160.0 mg/kg/injection, schedule: Q04DX003 (ip), vehicle: other): 99 % of control
- T/C (dose: 160.0 mg/kg/injection, schedule: Q04DX003 (oral), vehicle: other): 102 % of control

Compound: CN1C2CCC1C1N=NN(c3cc(C(F)(F)F)cc(C(F)(F)F)c3)C1(N1CCOCC1)C2 (centres undefined)
- T/C (dose: 50.0 mg/kg/injection, schedule: Q01DX005 (ip), vehicle: Klucel + Tween-80): 102 % of control
- T/C (dose: 100.0 mg/kg/injection, schedule: Q01DX005 (ip), vehicle: Klucel + Tween-80): 97 % of control

Compound: N#CC(C#N)C(c1ccccc1)c1cccc2ccccc12 (centres undefined)
- T/C [1]: 101 % of control
- T/C (dose: 200.0 mg/kg/injection, schedule: Q01DX001 (ip), vehicle: Klucel (hydroxypropylcellulose) (HPC)): 109 % of control
- T/C (dose: 400.0 mg/kg/injection, schedule: Q01DX001 (ip), vehicle: Klucel (hydroxypropylcellulose) (HPC)): 104 % of control

Compound: COc1ccccc1C1NC(c2ccccc2OC)C2CCCC1C2 (centres undefined)
- T/C (dose: 100.0 mg/kg/injection, schedule: Q04DX003 (ip), vehicle: saline): 91 % of control
- T/C (dose: 200.0 mg/kg/injection, schedule: Q04DX003 (ip), vehicle: saline): 90 % of control
- T/C (dose: 400.0 mg/kg/injection, schedule: Q04DX003 (ip), vehicle: saline): 88 % of control

Compound: COC(=O)C1=C2\c3cc4c(cc3CCN2C(=O)c2ccc(OC)c(OC)c2/C(OC)=C\1)OCO4
- T/C (dose: 50.0 mg/kg/injection, schedule: Q01DX005 (ip), vehicle: saline with Tween-80): 93 % of control
- T/C (dose: 100.0 mg/kg/injection, schedule: Q01DX005 (ip), vehicle: saline with Tween-80): 90 % of control
- T/C (dose: 200.0 mg/kg/injection, schedule: Q01DX005 (ip), vehicle: saline with Tween-80): 90 % of control

Compound: CC(=O)N/C(=C\c1ccc([N+](=O)[O-])cc1)c1nc2ccccc2s1
- T/C [2]: 110 % of control
- T/C [3]: 107 % of control
- T/C [4]: 113 % of control

Compound: C=C(N=[N+]=[N-])c1ccccc1
- T/C (dose: 6.25 mg/kg/injection, schedule: Q01DX009 (ip), vehicle: other): 101 % of control
- T/C (dose: 12.5 mg/kg/injection, schedule: Q01DX009 (ip), vehicle: other): 106 % of control
- T/C (dose: 25.0 mg/kg/injection, schedule: Q01DX009 (ip), vehicle: other): 112 % of control
- T/C (dose: 50.0 mg/kg/injection, schedule: Q01DX009 (ip), vehicle: other): 117 % of control
- T/C (dose: 100.0 mg/kg/injection, schedule: Q01DX009 (ip), vehicle: other): 107 % of control

Compound: N=c1c2ccccc2c2ccccc2n1O
- T/C (dose: 50.0 mg/kg/injection, schedule: Q01DX001 (ip), vehicle: saline sonified): 110 % of control
- T/C (dose: 100.0 mg/kg/injection, schedule: Q01DX001 (ip), vehicle: saline sonified): 90 % of control
- T/C (dose: 200.0 mg/kg/injection, schedule: Q01DX001 (ip), vehicle: saline sonified): 100 % of control

Compound: CCOc1ccccc1N=Nc1c(C)nc(N)nc1OCC
- T/C (dose: 60.0 mg/kg/injection, schedule: Q01DX005 (ip), vehicle: Klucel (hydroxypropylcellulose) (HPC)): 100 % of control
- T/C (dose: 120.0 mg/kg/injection, schedule: Q01DX005 (ip), vehicle: Klucel (hydroxypropylcellulose) (HPC)): 110 % of control
- T/C (dose: 240.0 mg/kg/injection, schedule: Q01DX005 (ip), vehicle: Klucel (hydroxypropylcellulose) (HPC)): 110 % of control

Compound: Oc1ccccc1C=Nc1ccc2c(ccc3c4ccccc4ccc23)c1
- T/C (dose: 50.0 mg/kg/injection, schedule: Q01DX005 (ip), vehicle: Klucel (hydroxypropylcellulose) (HPC)): 111 % of control
- T/C (dose: 100.0 mg/kg/injection, schedule: Q01DX005 (ip), vehicle: Klucel (hydroxypropylcellulose) (HPC)): 102 % of control
- T/C (dose: 200.0 mg/kg/injection, schedule: Q01DX005 (ip), vehicle: Klucel (hydroxypropylcellulose) (HPC)): 116 % of control

Compound: c1ccc(OCc2nn3c(-c4ccccc4)nnc3s2)cc1
- T/C [2]: 107 % of control
- T/C [3]: 94 % of control
- T/C [4]: 93 % of control

Compound: C[n+]1c(-c2ccccc2)c2cc(N)ccc2c2ccc(N)cc21
- T/C (dose: 1.56 mg/kg/injection, schedule: Q04DX003 (ip), vehicle: saline with Tween-80): 106 % of control
- T/C (dose: 3.13 mg/kg/injection, schedule: Q04DX003 (ip), vehicle: saline with Tween-80): 107 % of control
- T/C (dose: 6.25 mg/kg/injection, schedule: Q04DX003 (ip), vehicle: saline with Tween-80): 118 % of control
- T/C (dose: 25.0 mg/kg/injection, schedule: Q04DX003 (ip), vehicle: saline with Tween-80): 124 % of control

Compound: CC1=C2C=CCC[C@H](C)[C@H]2CC1
- T/C (dose: 3.5 mg/kg/injection, schedule: Q01DX005 (ip), vehicle: water): 95 % of control
- T/C (dose: 7.0 mg/kg/injection, schedule: Q01DX005 (ip), vehicle: water): 95 % of control
- T/C (dose: 14.0 mg/kg/injection, schedule: Q01DX005 (ip), vehicle: water): 92 % of control
- T/C (dose: 28.0 mg/kg/injection, schedule: Q01DX005 (ip), vehicle: water): 94 % of control

Compound: C=CCC(N)C(=O)O (centres undefined)
- T/C (dose: 50.0 mg/kg/injection, schedule: Q01DX005 (ip), vehicle: saline): 103 % of control
- T/C (dose: 100.0 mg/kg/injection, schedule: Q01DX005 (ip), vehicle: saline): 97 % of control

Compound: COc1cc2c(cc1OC)CN1CCCC1C2 (centres undefined)
- T/C (dose: 6.25 mg/kg/injection, schedule: Q01DX005 (ip), vehicle: saline with Tween-80): 97 % of control
- T/C (dose: 12.5 mg/kg/injection, schedule: Q01DX005 (ip), vehicle: saline with Tween-80): 108 % of control
- T/C (dose: 25.0 mg/kg/injection, schedule: Q01DX005 (ip), vehicle: saline with Tween-80): 101 % of control

Compound: CN(C)C1CCC(NC2=CC(=O)C(NC3CCC(N(C)C)CC3)=CC2=O)CC1 (centres undefined)
- T/C (dose: 1.56 mg/kg/injection, schedule: Q01DX005 (ip), vehicle: distilled water + alcohol): 95 % of control
- T/C (dose: 3.12 mg/kg/injection, schedule: Q01DX005 (ip), vehicle: distilled water + alcohol): 99 % of control
- T/C (dose: 6.25 mg/kg/injection, schedule: Q01DX005 (ip), vehicle: distilled water + alcohol): 100 % of control and 96 % of control

Compound: OC(CCCCOc1ccccc1)(c1ccccc1)c1ccccc1
- T/C [2]: 100 % of control
- T/C [3]: 101 % of control
- T/C [4]: 101 % of control

Compound: C=C1C(=O)OC2/C=C(\C)CC/C=C(\C)CC(OC(=O)/C(=C/C)CO)C12 (centres undefined)
- T/C (dose: 25.0 mg/kg/injection, schedule: Q01DX001 (ip), vehicle: Klucel (hydroxypropylcellulose) (HPC)): 101 % of control
- T/C (dose: 50.0 mg/kg/injection, schedule: Q01DX001 (ip), vehicle: Klucel (hydroxypropylcellulose) (HPC)): 96 % of control
- T/C [1]: 110 % of control
